In patent US4562292A, “Trifluoromethylketone sulfides and reversible enzyme inhibition therewith” (priority 1983, dated 1985):
Entries after “also recorded” stand apart in the source; their conditions may differ. Like-named read-outs stand apart in the source and are kept apart here.

How the values were obtained:
JH esterase [1] = assay: JH esterase inhibition in T. ni hemolymph; format: biochemical, Trichoplusia ni; settings: for IC50: diluted T. ni larval plasma, 10 min preincubation at 30° C., 5×10^-6 M JH III, read-out: I50 (M) JHE
Description: JH esterase activity was monitored in the hemolymph collected from last stadium day two larvae of the cabbage looper, Trichoplusia ni, Lepidoptera, Noctuidae. The plasma was diluted (v/v) in sodium phosphate buffer (pH 7.4, 0.08M with 0.01% [w/v] phenyulthiourea) and frozen at -60° C. until used. The inventive compounds were added in 1μ liter of ethanol to 100μ liters of the diluted plasma and preincubated for 10 min at 30° C. before adding substrate (ClO^3 H JH III New England Nuclear and unlabeled E, E JH III, Calbiochem) in 1μ liter of ethanol to give a final concentration of 5×10^-6 M JH III containing about 30,000 dpm/assay (Hammock and Sparks, Anal. Biochem. 82, 573 (1977).
(§1) In each case, at least three replicates of each inhibitor concentration were used. A minimum of two inhibitor concentrations showing greater and less than 50% inhibition were used to determine the I50 values from semilog plots except in the case of weaker inhibitors. Only those points on the apparently linear portion of the curve were used to calculate the I50 's.

T. ni JHE [2] = assay: removal of inhibitor by dialysis (reversibility of inhibition); format: biochemical, Trichoplusia ni; settings: for enzyme activity after dialysis: 48 hours after starting the dialysis; for t0.5 of reactivation / type of inhibition of T. ni JHE: dialysis
T. ni larvae [3] = assay: topical treatment of T. ni larvae, time of pupation; format: in vivo, Trichoplusia ni; settings: for delay of pupation versus ethanol controls: 0.1 and 0.2μ mole per application, 3 times per day, L5D1 and D2, topical; for delay of pupation: topical
Description: (§2) T. ni larvae are treated with 1 or 2μ liters of ethanol, with TFPOS, wit o-ethyl-S-phenyl phosphoramidothiolate (EPPAT), or with 1,1,1-trifluorotetradecan-2-one (TFT) in 1×10^-1 M ethanol solutions on the dorsum of the thorax three times per day (4, 12 and 17 hr after lights on) during the first two days of the last larval stadium. The insects were held under standard rearing conditions (27° C., 14 hr light, 10 hr dark). The time of pupation was checked daily at 4 hr after lights on and the pupae were checked for successful emergence two weeks later.
(§3) Larvae were treated on the dorsum of the thorax with 1 or 2μ liters of ethanol (control) and with 1 or 2μ liters, respectively, of 10^-1 M TFT, TFPOS, DTFT or EPPAT in ethanol, 3 times per day at 4, 12 and 17 h ALO (after lights on) on L5Dl and D2. Time of pupation was checked daily at 4 h ALO, and emergence was checked 2 weeks after treatment. L5Dl larvae 4 h ALO were also treated, but only once with 1μ liter ethanol or with 1μ liter of 10-1 M TFT, TFPOS, or EPPAT in ethanol, and then were bled at 1, 8, 12, 23, 28, or 32 h after treatment. Hemolymph was collected from five larvae, mixed and frozen at -60° C. until assayed for JHE and α-NAE activity. […] Death usually occured during the larval-pupal transformation, with the control mortality at 2μ liters of ethanol being 1%, TFT at 0.2M being 6%, an TFPOS being 4%.

T. ni larvae [4] = assay: mortality of T. ni larvae after repeated topical applications; format: in vivo, Trichoplusia ni; settings: for mortality at 0.2 µmol/application: Trichoplusia, topical, repeated applications of 2μ liters (0.2 moles/application), Example VIII; for mortality: repeated 1μ liter applications of 1×10^-1 M solution
Description: as §2, §3

α-NAE = assay: α-Naphtyl acetate (α-NA) hydrolysis in T. ni prepupal hemolymph; format: biochemical, Trichoplusia ni; settings: hemolymph of T. ni prepupae, substrate 2.3×10^-4 M; read-out: I50 (M) α-NAE
Description: α-Naphtyl acetate (α-NA) hydrolysis was monitored similarly in the hemolymph of prepupae of T. ni (fifth stadium, day 4) with a final substrate of 2.3×10^-4 M. Plasma dilutions and incubation times were chosen to give a hydrolysis rate which was linear with time.
as §1

T. ni JHE [5] = assay: in vivo inhibition of T. ni JHE after topical application; design: species or system Trichoplusia ni; settings: for maximum percent inhibition obtainable after treatment / selectivity for JHE in vivo: compared with EPPAT; for time of maximum inhibition of T. ni JHE after topical application: single dose 0.1μ moles/larve
Description: as §3
In another study, the in vivo inhibition of T. ni JHE following a single dose (0.1μ moles/larve) of EPPAT and TFPOS respectively was monitored. Maximum inhibition of T. ni JHE was obtained one hour after topical application for each.

[6] = biological target: T1, bovine pancreatic type III trypsin (Bos taurus, UniProt P00760); assay: trypsin activity; format: biochemical
T1 construct: purchased Sigma type III
T1 sequence (P00760 24-246): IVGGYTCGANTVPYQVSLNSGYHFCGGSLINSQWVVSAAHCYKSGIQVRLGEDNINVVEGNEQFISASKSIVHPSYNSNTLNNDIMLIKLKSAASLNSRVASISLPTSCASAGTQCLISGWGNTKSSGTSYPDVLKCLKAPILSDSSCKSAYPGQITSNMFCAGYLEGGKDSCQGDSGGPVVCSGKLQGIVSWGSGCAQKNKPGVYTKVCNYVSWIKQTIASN
Description: For trypsin, 1.5 ml of p-toluenesulfonyl-L-arginine methyl ester (Sigma) in Tris HCl buffer (pH 8.1, 0.04M with 0.1M CaCl2) was added to 1.5 ml of the same buffer containing bovine pancreatic type III trypsin (Sigma, 0.24 μg) to give a final substrate concentration of 1×10^-4 M. The assay was performed at 25° C.
(§4) For AChE, trypsin and α-ChT, the inhibitor was added to ethanol 10 min prior to the substrate and preincubated at the same temperature used for the actual assay. In no case was greater than 1% v/v ethanol added, and ethanol controls were always run. For the spectrophotometric enzyme assays, initial studies were run on a Varian-Cary 219 UV/visible spectrophotometer, while subsequent assays were run on a Gilford manual EIA reading using disposable cuvettes.
as §1

[7] = biological target: T2, Type VI-S electric eel AChE (Electrophorus electricus, UniProt O42275); assay: acetylcholinesterase (AChE) activity; format: biochemical
T2 construct: purchased Sigma Type VI-S
T2 sequence (O42275 24-633): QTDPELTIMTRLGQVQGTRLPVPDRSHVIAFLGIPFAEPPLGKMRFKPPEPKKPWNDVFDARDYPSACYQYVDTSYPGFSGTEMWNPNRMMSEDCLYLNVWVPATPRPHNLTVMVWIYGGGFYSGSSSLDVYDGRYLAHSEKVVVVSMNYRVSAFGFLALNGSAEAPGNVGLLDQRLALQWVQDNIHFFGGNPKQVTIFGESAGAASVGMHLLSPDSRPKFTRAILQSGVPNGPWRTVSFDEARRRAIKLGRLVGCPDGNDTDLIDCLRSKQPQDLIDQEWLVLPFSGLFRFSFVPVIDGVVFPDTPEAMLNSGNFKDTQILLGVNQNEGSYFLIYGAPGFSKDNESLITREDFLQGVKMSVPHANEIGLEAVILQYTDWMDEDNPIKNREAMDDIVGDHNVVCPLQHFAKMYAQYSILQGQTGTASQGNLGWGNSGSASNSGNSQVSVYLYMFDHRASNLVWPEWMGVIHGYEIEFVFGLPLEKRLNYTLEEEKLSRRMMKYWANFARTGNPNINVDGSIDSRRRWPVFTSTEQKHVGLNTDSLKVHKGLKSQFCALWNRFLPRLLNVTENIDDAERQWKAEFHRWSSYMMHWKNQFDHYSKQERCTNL
Description: For acetylcholinesterase (AChE) activity, 20μ liters of acetylthiocholine iodide (Sigma) in sodium phosphate buffer (0.05M, ph 7.2) was added to Type VI-S electric eel AChE (Sigma, 10 ng with 2-400 units/mg protein) in 3 ml the same buffer to give a final substrate concentration of 5×10^-4 M. The assay was run at 37° C.
as §4, §1

clofibrate esterase = assay: hydrolysis of clofibrate by microsomal protein; format: biochemical, human
From the text: The drug clofibrate (α-[4-chlorophenoxy)-α-methylpropionate; Atromid-S) is one of a class of compounds given to heart patients as a hypolipidemic agent.

JH esterase [8] = settings: crude juvenile hormone esterase from the cabbage looper; cited from earlier work
T. ni larvae [9] = settings: cited from earlier work
[10] = p-toluenesulfonyl-L-arginine methyl ester 1×10^-4 M, 25° C., read-out: I50 (M) Trypsin (*greater than)
[11] = acetylthiocholine iodide 5×10^-4 M, 37° C., * = greater than, read-out: I50 (M) AChE

Structure (SMILES) | IC50 (α-NAE) [M] | IC50 [6, 10] [M] | IC50 [7, 11] [M] | IC50 (JH esterase [1]) [M] | other results
CCCCCCCCSCC(=O)C(F)(F)F [Compound 1, 1,1,1-Trifluoro-3-thioocytylpropan-2-one] | 1.2e-06 | > 1e-05 | 2.3e-06 |  | inhibition I50 value, juvenile hormone esterases (JH esterase [1]; in words): nanomolar range; times more active in vitro for juvenile hormone esterase than TFT (JH esterase [1]; versus TFT): over 40 times; enzyme activity after dialysis (T. ni JHE [2]): restored gradually to the same activity as in the uninhibited enzyme; t0.5 of reactivation (T. ni JHE [2]): more than 20 hours; type of inhibition of T. ni JHE (T. ni JHE [2]): reversible inhibitors; delay of pupation versus ethanol controls (T. ni larvae [3]; listed as TFPOS): pupation was delayed with respect to the controls in a dose-dependent manner; delay of pupation (T. ni larvae [3]; 0.2μ moles/application): more dramatic; in vivo activity (T. ni larvae [3]; in vivo): pronounced in vivo activity; delay of pupation (T. ni larvae [3]; repeated doses of 0.1μ moles, first two days of last larval stadium): effective in delaying the pupation; mortality at 0.2 µmol/application (T. ni larvae [4]): 4%; mortality (T. ni larvae [4]): No mortality; maximum percent inhibition obtainable after treatment (T. ni JHE [5]): as effective; selectivity for JHE in vivo (T. ni JHE [5]): more selective for JHE in vivo than EPPAT; time of maximum inhibition of T. ni JHE after topical application (T. ni JHE [5]): one
CCCCCCCCCSCC(=O)C(F)(F)F [Compound 2] | 6.3e-06 | > 0.0001 | 9.3e-07 | 3.7e-09 | 
CCCCCCCCCCSCC(=O)C(F)(F)F [Compound 3] | 1e-05 | 8.2e-05 | 3.2e-06 | 2e-08 | 
CCCCCCCCCCCSCC(=O)C(F)(F)F [Compound 4] | 4.5e-05 | > 0.0001 | 2.6e-06 | 4.3e-08 | 
CCCCCCCCCCCCSCC(=O)C(F)(F)F [Compound 5] | 9.7e-05 | > 0.0001 | 2.2e-06 | 1.5e-08 | 
O=C(CSC1CCCCC1)C(F)(F)F [Compound 6] | 7.1e-07 | > 0.0001 | 1.8e-06 | 5.2e-06 | 
Cc1ccccc1SCC(=O)C(F)(F)F [Compound 9] | 6e-07 | 8.5e-05 | 3.7e-07 | 4.3e-06 | 
Cc1ccc(SCC(=O)C(F)(F)F)cc1 [Compound 11] | 1.6e-06 | > 0.0001 | 6.1e-07 | 1.1e-07 | 
CC(C)c1ccccc1SCC(=O)C(F)(F)F [Compound 12] | 2.7e-07 | 4.7e-05 | 4.9e-08 | 3.4e-07 | 
O=C(CSc1ccc(Cl)cc1)C(F)(F)F [Compound 19] |  |  |  |  | Wilkinson kinetics (clofibrate esterase; clofibrate hydrolysis): curves expected for a slowly reversible inhibitor; effect on hydrolysis of clofibrate (clofibrate esterase; low concentrations, Vm 104 nmol/min mg microsomal protein, Km 5.5 mM, ethanol release): significant delay in reacting maximal velocity
O=C(CSc1ccc(Br)cc1)C(F)(F)F [Compound 20] | 4.9e-06 | > 1e-05 | 2.4e-06 | 4.1e-07 | 
CC(C)=CCC/C(C)=C/CCSCC(=O)C(F)(F)F [Compound 31, (E)-8,12-dimethyl-4-thia-1,1,1-trifluorotrideca-7,11-dien-2-one] | 7.2e-07 | > 0.0001 | 6.2e-05 | 3.2e-09 | delay of pupation versus ethanol controls (T. ni larvae [3]; listed as DTFT): pupation was delayed with respect to the controls in a dose-dependent manner; maximum percent inhibition obtainable after treatment (T. ni JHE [5]): as effective; selectivity for JHE in vivo (T. ni JHE [5]): more selective for JHE in vivo than EPPAT
COC(C)(C)CCC/C(C)=C/CCSCC(=O)C(F)(F)F [Compound 32, (E)-8,12-Dimethyl-12-methoxy-4-Thia-1,1,1-trifluorotridec-7-en-2-one] | 1.9e-06 |  |  | 3.1e-09 | IC50 [6]: > 0.0001 M; IC50 [7]: > 0.0001 M
CCOP(N)(=O)Sc1ccccc1 (stereo not drawn) [EPPAT, O-ethyl-S-phenyl phosphoramidothiolate, reference compound] |  |  |  |  | enzyme activity after dialysis (T. ni JHE [2]): almost complete loss of enzyme activity; type of inhibition of T. ni JHE (T. ni JHE [2]): irreversible inhibitor; delay of pupation versus ethanol controls (T. ni larvae [3]): delayed preparation at both doses; also recorded: pupation was delayed with respect to the controls in a dose-dependent manner; in vitro inhibition of juvenile hormone esterase (literature) (JH esterase [8]): potent in vitro inhibition of juvenile hormone esterase; persistence of in vivo inhibition (T. ni JHE [5]; compared with TFPOS and DTFT): more persistent; time of maximum inhibition of T. ni JHE after topical application (T. ni JHE [5]): one; in vivo activity, topical application to cabbage looper (literature) (T. ni larvae [9]): disrupt development of the cabbage looper
CCCCCCCCCCCCC(=O)C(F)(F)F [TFT, 1,1,1-trifluorotetradecan-2-one, reference compound] |  |  |  |  | enzyme activity after dialysis (T. ni JHE [2]): restored gradually to the same activity as in the uninhibited enzyme; t0.5 of reactivation (T. ni JHE [2]): more than 20 hours; type of inhibition of T. ni JHE (T. ni JHE [2]): reversible inhibitors; delay of pupation versus ethanol controls (T. ni larvae [3]): neither dose of TFT resulted in a delay in pupation; also recorded: no difference in the time of pupation; also recorded: no such in vivo effect; mortality at 0.2 µmol/application (T. ni larvae [4]): 6%; mortality (T. ni larvae [4]): No mortality; in vitro inhibition of juvenile hormone esterase (literature) (JH esterase [8]): relatively greater juvenile hormone esterase activity in vitro than EPPAT; in vivo activity, topical application to cabbage looper (literature) (T. ni larvae [9]): lack of pronounced in vivo activity
